Test results published in patent US11759455B2, “Substituted 1H-imidazo[4,5-b]pyridin-2(3H)-ones and their use as GLUN2B receptor modulators” (JANSSEN PHARMACEUTICA NV, priority 2016, dated 2023).
Read-outs that look alike come from different tables or passages of the source.

Target: T1, human GluN1/GluN2B NMDA receptors (Homo sapiens, UniProt Q13224)
T1 construct: expressed in transfected cells
Assay: Cell-based calcium flux (FLIPR) assay on cloned human NR1/NR2B ion channels expressed in mammalian cells (standard and HTS buffer variants);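 also: stable Tet-On inducible cell line, Ca2+ influx triggered by glutamate at about EC40 plus 10 µM glycine, fluorescent dye read-out over 5 min, normalized to control wells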

[1] = standard assay buffer (0.5 mM MgCl2 dye loading; 137 mM NaCl, 4 mM KCl assay buffer), human GluN1/GluN2B cells, read-out: NR2B IC50 (μM) standard assay
[2] = standard assay buffer (0.5 mM MgCl2 in dye loading buffer; 137 mM NaCl, 4 mM KCl in assay buffer), human GluN1/GluN2B, read-out: NR2B IC50 (μM) standard assay
[3] = HTS assay buffer (1.5 mM MgCl2 in dye loading buffer; 150 mM NaCl, 3 mM KCl in assay buffer), human GluN1/GluN2B, read-out: NR2B IC50 (μM) HTS assay

T1 sequence (Q13224 27-1484, other chains not shown): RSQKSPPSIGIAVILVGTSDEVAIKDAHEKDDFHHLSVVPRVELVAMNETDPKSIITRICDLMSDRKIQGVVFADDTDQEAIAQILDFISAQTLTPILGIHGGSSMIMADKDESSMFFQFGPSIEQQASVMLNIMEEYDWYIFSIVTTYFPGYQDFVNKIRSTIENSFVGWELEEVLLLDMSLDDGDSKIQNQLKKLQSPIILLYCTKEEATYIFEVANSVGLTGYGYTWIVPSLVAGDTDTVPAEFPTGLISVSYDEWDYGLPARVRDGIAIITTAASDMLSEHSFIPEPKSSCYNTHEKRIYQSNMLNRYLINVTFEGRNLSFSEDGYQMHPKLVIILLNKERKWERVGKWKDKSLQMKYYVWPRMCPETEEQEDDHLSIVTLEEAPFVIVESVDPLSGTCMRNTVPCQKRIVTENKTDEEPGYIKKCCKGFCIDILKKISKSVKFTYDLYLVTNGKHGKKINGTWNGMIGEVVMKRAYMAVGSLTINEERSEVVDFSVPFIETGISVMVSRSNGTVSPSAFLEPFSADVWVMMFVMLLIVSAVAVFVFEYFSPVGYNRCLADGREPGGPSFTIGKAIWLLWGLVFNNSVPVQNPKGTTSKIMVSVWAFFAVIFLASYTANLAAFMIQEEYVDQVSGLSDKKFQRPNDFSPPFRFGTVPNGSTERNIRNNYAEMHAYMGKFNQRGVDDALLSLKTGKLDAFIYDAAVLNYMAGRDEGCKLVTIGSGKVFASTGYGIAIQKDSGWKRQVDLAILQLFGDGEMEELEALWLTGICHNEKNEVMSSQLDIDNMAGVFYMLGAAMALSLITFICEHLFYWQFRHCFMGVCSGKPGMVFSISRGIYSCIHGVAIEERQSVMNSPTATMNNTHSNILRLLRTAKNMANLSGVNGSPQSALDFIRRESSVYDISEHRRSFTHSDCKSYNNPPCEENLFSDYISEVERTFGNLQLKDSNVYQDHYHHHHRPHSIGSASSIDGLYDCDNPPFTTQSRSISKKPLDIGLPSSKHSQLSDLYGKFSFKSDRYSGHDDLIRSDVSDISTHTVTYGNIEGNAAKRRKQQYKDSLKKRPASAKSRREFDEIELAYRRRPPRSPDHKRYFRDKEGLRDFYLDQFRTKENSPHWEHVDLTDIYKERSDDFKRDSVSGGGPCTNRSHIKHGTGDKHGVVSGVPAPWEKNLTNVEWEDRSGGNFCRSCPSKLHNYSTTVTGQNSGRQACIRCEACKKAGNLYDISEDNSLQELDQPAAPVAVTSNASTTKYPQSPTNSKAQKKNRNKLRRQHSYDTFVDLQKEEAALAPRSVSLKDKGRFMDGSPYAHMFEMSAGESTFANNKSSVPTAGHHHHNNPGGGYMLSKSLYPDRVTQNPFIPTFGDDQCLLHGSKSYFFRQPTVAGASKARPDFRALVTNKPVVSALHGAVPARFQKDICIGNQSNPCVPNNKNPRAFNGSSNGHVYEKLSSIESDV

Compound | IC50 [1] [µM] | other results
Cn1cc(Cn2c(=O)[nH]c3ncc(-c4ccc(F)cc4)cc32)nn1 [Example 142, 6-(4-Fluorophenyl)-1-[(1-methyltriazol-4-yl)methyl]-3H-imidazo[4,5-b]pyridin-2-one] | 0.208 | 
Cn1c(=O)n(CC(=O)N2CC(F)C2)c2cc(-c3ccc(F)c(C(F)(F)F)c3)cnc21 [Example 407, 1-[2-(3-Fluoroazetidin-1-yl)-2-oxo-ethyl]-6-[4-fluoro-3-(trifluoromethyl)phenyl]-3-methyl-imidazo[4,5-b]pyridin-2-one] |  | IC50 [2]: 0.031 µM
O=c1[nH]c2ncc(-c3cccc(C(F)(F)F)c3)cc2n1Cc1cncc(C(F)(F)F)c1 [Example 259, 6-[3-(Trifluoromethyl)phenyl]-1-[[5-(trifluoromethyl)-3-pyridyl]methyl]-3H-imidazo[4,5-b]pyridin-2-one] | 1.03 | 
Cn1c(=O)n(CC(=O)N2CCC2)c2cc(-c3cnc(C(F)(F)F)s3)cnc21 [Example 115, 1-[2-(Azetidin-1-yl)-2-oxo-ethyl]-3-methyl-6-[2-(trifluoromethyl)thiazol-5-yl]imidazo[4,5-b]pyridin-2-one] | 0.82 | 
O=c1[nH]c2ncc(-c3ccnc(C(F)(F)F)c3)cc2n1CCN1CCC1 [Example 155, 1-[2-(Azetidin-1-yl)ethyl]-6-[2-(trifluoromethyl)-4-pyridyl]-3H-imidazo[4,5-b]pyridin-2-one] | 1.75 | 
CCOc1ccccc1-c1cnc2[nH]c(=O)n(Cc3ccccc3F)c2c1 [Example 503, 6-(2-Ethoxyphenyl)-1-[(2-fluorophenyl)methyl]-3H-imidazo[4,5-b]pyridin-2-one] |  | IC50 [3]: 5.49 µM
Cc1cccc(C)c1-c1cnc2[nH]c(=O)n(CCN3CCC3)c2c1 [Example 157, 1-[2-(Azetidin-1-yl)ethyl]-6-(2,6-dimethylphenyl)-3H-imidazo[4,5-b]pyridin-2-one] | 1.97 | 
Cc1cc(Cn2c(=O)n(C)c3ncc(-c4cccc(C(F)(F)F)c4)cc32)no1 [Example 74, 3-Methyl-1-[(5-methylisoxazol-3-yl)methyl]-6-[3-(trifluoromethyl)phenyl]imidazo[4,5-b]pyridin-2-one] | 0.057 | 
O=C(Cn1c(=O)[nH]c2ncc(-c3cccc(C(F)(F)F)c3)cc21)N1CC2(CNC2)C1 [Example 207, 1-[2-(2,6-Diazaspiro[3.3]heptan-6-yl)-2-oxo-ethyl]-6-[3-(trifluoromethyl)phenyl]-3H-imidazo[4,5-b]pyridin-2-one] | 0.453 | 
COc1ccc(Cn2c(=O)[nH]c3ncc(-c4cccc(C(F)(F)F)c4)cc32)nn1 [Example 252, 1-[(6-Methoxypyridazin-3-yl)methyl]-6-[3-(trifluoromethyl)phenyl]-3H-imidazo[4,5-b]pyridin-2-one] | > 10 | 
Cc1cccc(-c2cnc3c(c2)n(CC(=O)N2CC(F)C2)c(=O)n3C)c1F [Example 405, 1-[2-(3-Fluoroazetidin-1-yl)-2-oxo-ethyl]-6-(2-fluoro-3-methyl-phenyl)-3-methyl-imidazo[4,5-b]pyridin-2-one] |  | IC50 [2]: 0.022 µM
Cn1c(=O)n(Cc2cccnn2)c2cc(-c3cccc(F)c3)cnc21 [Example 57, 6-(3-Fluorophenyl)-3-methyl-1-(pyridazin-3-ylmethyl)imidazo[4,5-b]pyridin-2-one] | 0.2 | 
Cc1cc(Cn2c(=O)n(C)c3ncc(-c4ccc(F)c(F)c4)cc32)no1 [Example 8, 6-(3,4-Difluorophenyl)-3-methyl-1-[(5-methylisoxazol-3-yl)methyl]imidazo[4,5-b]pyridin-2-one] | 0.104 | 
O=c1[nH]c2ncc(-c3cccc(OC(F)F)c3)cc2n1Cc1cncc(F)c1 [Example 304, 6-[3-(Difluoromethoxy)phenyl]-1-[(5-fluoro-3-pyridyl)methyl]-3H-imidazo[4,5-b]pyridin-2-one] | 0.021 | 
Cc1c(F)ccc(-c2cnc3[nH]c(=O)n(CCN4CC(F)C4)c3c2)c1C [Example 184, 1-[2-(3-Fluoroazetidin-1-yl)ethyl]-6-(4-fluoro-2,3-dimethyl-phenyl)-3H-imidazo[4,5-b]pyridin-2-one] | 2.57 | 
CN(C)C(=O)Cn1c(=O)n(C)c2ncc(-c3ccc(C4CC4)s3)cc21 [Example 110, 2-[6-(5-Cyclopropyl-2-thienyl)-3-methyl-2-oxo-imidazo[4,5-b]pyridin-1-yl]-N,N-dimethyl-acetamide] | 0.04 | 
COc1ccc(-c2cnc3[nH]c(=O)n(CC(=O)N4CCOCC4)c3c2)cc1 [Example 1, 6-(4-Methoxyphenyl)-1-(2-morpholino-2-oxo-ethyl)-3H-imidazo[4,5-b]pyridin-2-one] | 2.74 | 
CN(C)C(=O)Cn1c(=O)n(C)c2ncc(-c3csc(C(F)F)c3)cc21 [Example 97, 2-[6-[5-(Difluoromethyl)-3-thienyl]-3-methyl-2-oxo-imidazo[4,5-b]pyridin-1-yl]-N,N-dimethyl-acetamide] | 0.015 | 
CNC(=O)Cn1c(=O)[nH]c2ncc(-c3ccc(OC)c(C)c3)cc21 [Example 439, 2-[6-(4-Methoxy-3-methyl-phenyl)-2-oxo-3H-imidazo[4,5-b]pyridin-1-yl]-N-methyl-acetamide] |  | IC50 [3]: 3.37 µM

Compound | IC50 [1] [µM] | other results
Cn1c(=O)n(CC(=O)N2CCCC2)c2cc(-c3ccc(C(F)(F)F)s3)cnc21 [Example 328, 3-Methyl-1-(2-oxo-2-pyrrolidin-1-yl-ethyl)-6-[5-(trifluoromethyl)-2-thienyl]imidazo[4,5-b]pyridin-2-one] |  | IC50 [2]: 0.079 µM
Cn1c(=O)n(CC(=O)N2CC(F)C2)c2cc(-c3ccc(F)c(C(F)F)c3)cnc21 [Example 585, 6-[3-(Difluoromethyl)-4-fluoro-phenyl]-1-[2-(3-fluoroazetidin-1-yl)-2-oxo-ethyl]-3-methyl-imidazo[4,5-b]pyridin-2-one] |  | IC50 [2]: 0.018 µM
Cc1cncc(Cn2c(=O)[nH]c3ncc(-c4ccc(F)c(C)c4)cc32)c1 [Example 269, 6-(4-Fluoro-3-methyl-phenyl)-1-[(5-methyl-3-pyridyl)methyl]-3H-imidazo[4,5-b]pyridin-2-one] | 0.128 | 
Cc1cc(-c2cnc3c(c2)n(Cc2ccccn2)c(=O)n3C)ccc1F [Example 6, 6-(4-Fluoro-3-methyl-phenyl)-3-methyl-1-(2-pyridylmethyl)imidazo[4,5-b]pyridin-2-one] | 0.048 | 
COc1cccc(Cn2c(=O)[nH]c3ncc(-c4cc(C)cs4)cc32)c1 [Example 507, 1-[(3-Methoxyphenyl)methyl]-6-(4-methyl-2-thienyl)-3H-imidazo[4,5-b]pyridin-2-one] |  | IC50 [3]: 8.1 µM
Cc1cc(C)cc(-c2cnc3[nH]c(=O)n(CC4CC4)c3c2)c1 [Example 474, 1-(Cyclopropylmethyl)-6-(3,5-dimethylphenyl)-3H-imidazo[4,5-b]pyridin-2-one] |  | IC50 [2]: 3.57 µM
O=C(Cn1c(=O)[nH]c2ncc(-c3cccc(C(F)(F)F)c3)cc21)N1CCCC1 [Example 201, 1-(2-Oxo-2-pyrrolidin-1-yl-ethyl)-6-[3-(trifluoromethyl)phenyl]-3H-imidazo[4,5-b]pyridin-2-one] | 0.033 | 
Cc1cccc(-c2cnc3[nH]c(=O)n(CCN4CC(F)C4)c3c2)c1C [Example 182, 6-(2,3-Dimethylphenyl)-1-[2-(3-fluoroazetidin-1-yl)ethyl]-3H-imidazo[4,5-b]pyridin-2-one] | 1.74 | 
Cn1c(=O)n(Cc2ccncn2)c2cc(-c3ccc(F)c(F)c3)cnc21 [Example 70, 6-(3,4-Difluorophenyl)-3-methyl-1-(pyrimidin-4-ylmethyl)imidazo[4,5-b]pyridin-2-one] | 2.21 | 
Cn1cc(Cn2c(=O)n(C)c3ncc(-c4ccc(C(F)F)s4)cc32)nn1 [Example 559, 6-[5-(Difluoromethyl)-2-thienyl]-3-methyl-1-[(1-methyltriazol-4-yl)methyl]imidazo[4,5-b]pyridin-2-one] |  | IC50 [2]: 0.28 µM
CNC(=O)Cn1c(=O)[nH]c2ncc(-c3cccc(C(F)(F)F)c3)cc21 [Example 435, N-Methyl-2-[2-oxo-6-[3-(trifluoromethyl)phenyl]-3H-imidazo[4,5-b]pyridin-1-yl]acetamide] |  | IC50 [2]: 0.264 µM
O=c1[nH]c2ncc(-c3cc(F)cc(F)c3)cc2n1CCN1CCC(O)C1 (centres unmarked) [Example 175, 6-(3,5-Difluorophenyl)-1-[2-(3-hydroxypyrrolidin-1-yl)ethyl]-3H-imidazo[4,5-b]pyridin-2-one] | 2.11 | 
Cc1cccc(-c2cnc3[nH]c(=O)n(CCN4CCC4)c3c2)c1C [Example 169, 1-[2-(Azetidin-1-yl)ethyl]-6-(2,3-dimethylphenyl)-3H-imidazo[4,5-b]pyridin-2-one] | 0.217 | 
Cn1c(=O)n(Cc2cccnc2)c2cc(-c3cccc(Cl)c3F)cnc21 [Example 359, 6-(3-Chloro-2-fluoro-phenyl)-3-methyl-1-(3-pyridylmethyl)imidazo[4,5-b]pyridin-2-one] |  | IC50 [2]: 0.096 µM
Cc1cc(Cn2c(=O)[nH]c3ncc(-c4cccc(C(F)(F)F)c4)cc32)no1 [Example 19, 1-[(5-Methylisoxazol-3-yl)methyl]-6-[3-(trifluoromethyl)phenyl]-3H-imidazo[4,5-b]pyridin-2-one] | 0.124 | 
O=c1[nH]c2ncc(-c3ccc(F)c(F)c3)cc2n1Cc1ccccn1 [Example 279, 6-(3,4-Difluorophenyl)-1-(2-pyridylmethyl)-3H-imidazo[4,5-b]pyridin-2-one] | 5.03 | 
O=c1[nH]c2ncc(-c3cc(F)cc(F)c3)cc2n1CCN1CCCC1 [Example 174, 6-(3,5-Difluorophenyl)-1-(2-pyrrolidin-1-ylethyl)-3H-imidazo[4,5-b]pyridin-2-one] | 1.25 | 
CC(C)c1ccc(Cn2c(=O)[nH]c3ncc(-c4ccc(Cl)cc4)cc32)cc1 [Example 511, 6-(4-Chlorophenyl)-1-[(4-isopropylphenyl)methyl]-3H-imidazo[4,5-b]pyridin-2-one] |  | IC50 [3]: > 29 µM
Cc1c(F)ccc(-c2cnc3c(c2)n(Cc2ncccn2)c(=O)n3C)c1F [Example 65, 6-(2,4-Difluoro-3-methyl-phenyl)-3-methyl-1-(pyrimidin-2-ylmethyl)imidazo[4,5-b]pyridin-2-one] | 0.81 | 
